Literature values, collected in patent US12133918B2, “Partially pre-gelatinized cassava starch as pharmaceutical excipient” (Griffin Gamma, LLC, priority 2021, dated 2024).

Details: literature and experimental data

Compound: COc1ccccc1OCC(O)CO (centres unmarked) [Guaifenesin, 3-(2-methoxyphenoxy)-1,2-propanediol]
- permeability (BCS): highly permeable
- solubility (BCS): highly soluble

Compound: CC(=O)Oc1ccccc1C(=O)O [Acetylsalicylic acid, acetylsalicylic acid]
- BCS class: Class I
- permeability (BCS): highly permeable
- solubility (BCS): highly soluble
